Our source for the IC50 values is patent US10640486B2, “Heteroarylcarboxamide derivatives as plasma kallikrein inhibitors” (Boehringer Ingelheim International GmbH, priority 2015, dated 2020).

Chain of human Plasma Kallikrein (KLKB1) (P03952 391-638): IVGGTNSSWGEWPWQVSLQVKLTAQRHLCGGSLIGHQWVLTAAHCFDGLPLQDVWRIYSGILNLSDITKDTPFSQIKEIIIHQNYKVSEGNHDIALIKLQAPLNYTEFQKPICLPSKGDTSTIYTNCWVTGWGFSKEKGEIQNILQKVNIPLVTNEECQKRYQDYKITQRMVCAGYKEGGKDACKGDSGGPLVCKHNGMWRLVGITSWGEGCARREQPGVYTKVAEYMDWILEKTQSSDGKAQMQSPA
Chain of human Plasma Kallikrein (KLKB1) (P03952 20-390 partner): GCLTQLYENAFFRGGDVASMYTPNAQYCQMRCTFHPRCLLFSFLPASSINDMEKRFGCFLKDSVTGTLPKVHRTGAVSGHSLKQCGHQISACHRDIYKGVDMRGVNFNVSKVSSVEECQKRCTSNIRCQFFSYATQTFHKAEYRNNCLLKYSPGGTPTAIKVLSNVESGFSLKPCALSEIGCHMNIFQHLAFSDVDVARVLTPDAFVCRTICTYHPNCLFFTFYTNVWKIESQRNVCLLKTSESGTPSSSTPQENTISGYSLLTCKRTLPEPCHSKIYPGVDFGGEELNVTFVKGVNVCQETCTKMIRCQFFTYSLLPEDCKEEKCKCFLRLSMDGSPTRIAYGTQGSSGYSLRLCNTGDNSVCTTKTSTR

The assay addresses human Plasma Kallikrein (KLKB1) (Homo sapiens (Human), UniProt P03952). The assay is described as follows: Inhibition of KLKB1 endpoint assay. It counts as biochemical. As to conditions: fluorogenic substrate H-Pro-Phe-Arg-AMC, 1 hr at Room Temperature, read-out: IC50 measurements for the inhibition of human Plasma Kallikrein (KLKB1). Here is the method: The ability of compounds of Formula I to inhibit plasma kallikrein (KLKB1), Factor XIIa (FXIIa), Factor XIa (FXIa), Factor Xa (FXa), Factor IIa (alpha-thrombin; FIIa), plasmin, trypsin, tissue kallikrein 1 (KLK1), Factor VIIa (FVIIa), or FVIIa complexed with Tissue Factor, phospholipids and CaCl2 (FVIIa/TF/PL/CaCl2) was determined using the following biochemical assays in assay buffer (100 mM Tris, 150 mM NaCL, adjusted to a pH of 7.8 with HCl, and containing 0.1% (w/v) BSA and 0.05% (v/v) Tween20) in the presence of 1% (v/v) DMSO:
Evaluation of the Inhibition of KLKB1 Using an Endpoint Assay
Subsequently, PPACK II (Calbiochem) was added as a stop solution to achieve a final concentration of 1 μM and fluorescence was measured using an Envision Reader (PerkinElmer) with the wavelength excitation setting of 355 nm and the wavelength emission setting of 460 nm.
The IC50 values were obtained with the aid of the inhibition of KLKB1 endpoint assay described above.
Broadly, the IC50 is the concentration that gives 50% inhibition. As to `Nc1ccc2c(n1)CCC2NC(=O)c1cn(Cc2ccc(CN3CC4CCCN4C3=O)cc2)nn1` (stereo not drawn) [Example 61, 1-[4-(3-Oxo-tetrahydro-pyrrolo[1,2-c]imidazol-2-ylmethyl)-benzyl]-1H-[1,2,3]triazole-4-carboxylic acid (2-amino-6,7-dihydro-5H-[1]pyrindin-5-yl)-amide], the IC50 amounted to 0.34 µM.

Turning to `Nc1ccc2c(n1)CCC2NC(=O)c1cn(Cc2ccc(CN3CC4CC4C3=O)cc2)nn1` (stereo not drawn) [Example 62, 1-[4-(2-Oxo-3-aza-bicyclo[3.1.0]hex-3-ylmethyl)-benzyl]-1H-[1,2,3]triazole-4-carboxylicacid (2-amino-6,7-dihydro-5H-[1]pyrindin-5-yl)-amide], the IC50 was 0.41 µM. To `Nc1ccc2c(n1)CCC2NC(=O)c1cn(Cc2ccc(N3CC4CCCN4C3=O)cc2)nn1` (stereo not drawn) [Example 63, 1-[4-(3-Oxo-tetrahydro-pyrrolo[1,2-c]imidazol-2-yl)-benzyl]-1H-[1,2,3]triazole-4-carboxylic acid (2-amino-6,7-dihydro-5H-[1]pyrindin-5-yl)-amide] belongs 3 µM; to `Nc1ccc2c(n1)CCC2NC(=O)c1cn(Cc2ccc(CN3CCC4(CC4)C3=O)cc2)nn1` (stereo not drawn) [Example 64, 1-[4-(4-Oxo-5-aza-spiro[2.4]hept-5-ylmethyl)-benzyl]-1H-[1,2,3]triazole-4-carboxylic acid (2-amino-6,7-dihydro-5H-[1]pyrindin-5-yl)-amide], 0.58 µM; to `Nc1ccc2c(n1)CCC2NC(=O)c1cn(Cc2ccc(N3CC4CC4C3=O)cc2)nn1` (stereo not drawn) [Example 65, 1-[4-(2-Oxo-3-aza-bicyclo[3.1.0]hex-3-yl)-benzyl]-1H-[1,2,3]triazole-4-carboxylic acid (2-amino-6,7-dihydro-5H-[1]pyrindin-5-yl)-amide], 1.1 µM. Turning to `Cc1cc(Cn2cc(C(=O)N[C@@H]3CCc4nc(N)ccc43)cn2)ccc1CN1CC2CC2C1=O` (stereo partly drawn) [Example 66, 1-[3-Methyl-4-(2-oxo-3-aza-bicyclo[3.1.0]hex-3-ylmethyl)-benzyl]-1H-pyrazole-4-carboxylic acid ((R)-2-amino-6,7-dihydro-5H-[1]pyrindin-5-yl)-amide], the IC50 came to 0.018 µM. To `Cc1cc(CN2CC3CC3C2=O)ccc1Cn1cc(C(=O)N[C@@H]2CCc3nc(N)ccc32)cn1` (stereo partly drawn) [Example 69, 1-[2-Methyl-4-(2-oxo-3-aza-bicyclo[3.1.0]hex-3-ylmethyl)-benzyl]-1H-pyrazole-4-carboxylic acid ((R)-2-amino-6,7-dihydro-5H-[1]pyrindin-5-yl)-amide] belongs 0.055 µM. To `Nc1ccc2c(n1)CCC2NC(=O)c1cn(Cc2cccc(N3CCN4CCCCC4C3=O)c2)nn1` (stereo not drawn) [Example 70, 1-[3-(1-Oxo-octahydro-pyrido[1,2-a]pyrazin-2-yl)-benzyl]-1H-[1,2,3]triazole-4-carboxylic acid (2-amino-6,7-dihydro-5H-[1]pyrindin-5-yl)-amide] belongs over 10 µM; to `CC(c1ccc(N2CC3CC3C2)nc1)n1cc(C(=O)N[C@@H]2CCc3c2ccnc3N)cn1` (stereo partly drawn) [Example 71, 1-{1-[6-(3-Aza-bicyclo[3.1.0]hex-3-yl)-pyridin-3-yl]-ethyl}-1H-pyrazole-4-carboxylic acid ((R)-1-amino-6,7-dihydro-5H-[2]pyrindin-5-yl)amide], 0.009 µM; to `Nc1nccc2c1CC[C@H]2NC(=O)c1cnn(C2(c3ccc(N4CC5CC5C4)nc3)CC2)c1` (stereo partly drawn) [Example 74, 1-{1-[6-(3-Aza-bicyclo[3.1.0]hex-3-yl)-pyridin-3-yl]-cyclopropyl}-1H-pyrazole-4-carboxylic acid ((R)-1-amino-6,7-dihydro-5H-[2]pyrindin-5-yl)amide], 0.041 µM.

In the case of `Nc1nccc2c1CC[C@H]2NC(=O)c1cnn(Cc2ccc(N3CC4CC4C3)nc2)c1` (stereo partly drawn) [Example 75, 1-[6-(3-Aza-bicyclo[3.1.0]hex-3-yl)-pyridin-3-ylmethyl]-1H-pyrazole-4-carboxylic acid ((R)-1-amino-6,7-dihydro-5H-[2]pyrindin-5-yl)amide], the IC50 was determined as 0.001 µM. Take `Nc1ccc2c(n1)CC[C@H]2NC(=O)c1cnn(Cc2ccc(N3CC4CC4C3)nc2)c1` (stereo partly drawn) [Example 76]: the IC50 amounted to 0.008 µM. Regarding `Nc1nccc2c1CC[C@H]2NC(=O)c1cn(Cc2ccc(N3CC4CC4C3)nc2)nc1C(F)(F)F` (stereo partly drawn) [Example 77], the IC50 amounted to 0.002 µM. In the case of `Nc1ccc2c(n1)CC[C@H]2NC(=O)c1cn(Cc2ccc(N3CC4CC4C3)nc2)nc1C(F)(F)F` (stereo partly drawn) [Example 78], the IC50 was determined as 0.021 µM.

Take `Nc1nccc2c1CC[C@H]2NC(=O)c1cnn(Cc2ccc(N3CC4CCC4C3)nc2)c1` (stereo partly drawn) [Example 79]: the IC50 was found to be 0.008 µM. Regarding `Nc1nccc2c1CC[C@H]2NC(=O)c1cnn(Cc2cnc(N3CC4CC4C3)nc2)c1` (stereo partly drawn) [Example 80], the IC50 is 0.003 µM. For the compound `Nc1ccc2c(n1)CC[C@H]2NC(=O)c1cnn(Cc2cnc(N3CC4CC4C3)nc2)c1` (stereo partly drawn) [Example 81], the IC50 came out at 0.019 µM. Regarding `Nc1nccc2c1CC[C@H]2NC(=O)c1cn(Cc2cnc(N3CC4CC4C3)nc2)nn1` (stereo partly drawn) [Example 82], the IC50 amounted to 0.007 µM. As for `Nc1ccc2c(n1)CC[C@H]2NC(=O)c1cn(Cc2cnc(N3CC4CC4C3)nc2)nn1` (stereo partly drawn) [Example 83], the IC50 was 0.073 µM. To `Nc1nccc2c1CC[C@H]2NC(=O)c1cnn(Cc2ccc(N3CC4C(C3)C4(F)F)nc2)c1` (stereo partly drawn) [Example 84] belongs 0.001 µM; to `Nc1nccc2c1CC[C@H]2NC(=O)c1cnn(Cc2cnc(N3CC4CC4C3)cn2)c1` (stereo partly drawn) [Example 85], 0.004 µM; to `Nc1ccc2c(n1)CC[C@H]2NC(=O)c1cnn(Cc2cnc(N3CC4CC4C3)cn2)c1` (stereo partly drawn) [Example 86], 0.034 µM. As to `Cc1cc(N)nc2c1C(NC(=O)c1cn(Cc3ccc(N4CC5COCCN5C4=O)cc3)nn1)CC2` (stereo not drawn) [Example 87, 1-[4-(3-Oxo-tetrahydro-imidazo[5,1-c][1,4]oxazin-2-yl)-benzyl]-1H-[1,2,3]triazole-4-carboxylic acid (2-amino-4-methyl-6,7-dihydro-5H-[1]pyrindin-5-yl)-amide], the IC50 was determined as 3.2 µM. As for `Nc1nccc2c1CC[C@H]2NC(=O)c1cnn(Cc2ccc(N3CCC4(CC4)C3)nc2)c1` [Example 89], the figure is 0.005 µM; as for `Nc1nccc2c1CC[C@H]2NC(=O)c1cnn(Cc2ccc(N3CC4(COC4)C3)nc2)c1` [Example 90], 0.078 µM; as for `Nc1nccc2c1CC[C@H]2NC(=O)c1cnn(Cc2ccc(N3C[C@@H]4[C@@H](CO)[C@@H]4C3)nc2)c1` [Example 91], 0.038 µM.

As for `Nc1ccc2c(n1)CC[C@H]2NC(=O)c1cn(Cc2cnc(N3CC4CC4C3)nc2)nc1C(F)(F)F` (stereo partly drawn) [Example 92], the IC50 stood at 0.023 µM.
